{"source": "patent US20230027472A1", "about": "“TARGETING P73 FOR CANCERS RESISTANT TO BH3 MIMETICS” (BOARD OF REGENTS, THE UNIVERSITY OF TEXAS SYSTEM, priority 2019, published 2023)", "type_in_all_cases": "cell-based", "key": {"[1]": {"system": "AML cells", "assay": "Susceptibility of AML cells to Bcl-2 inhibitor ABT-199 (VEN) after (R)-2HG treatment", "conditions": "AML cells treated with 2HG"}, "[2]": {"system": "TAp73 and ΔNp73", "assay": "TAp73 and ΔNp73 levels in AML cells after (R)-2HG treatment", "excerpt": "Results The inventors determined copy numbers of ΔNp73 and TAp73 mRNA levels in 78 AML samples including 31 de novo AML using droplet digital PCR (ddPCR), which allows to determine the absolute quantity of the isoforms expressed, and investigated their clinical and biological relevance. ΔNp73 and TAp73 expression was detected in 93.6% and 98.7% of AML samples at variable levels (mean±SEM, 10.6±5.0, and 106.6±33.7 copies/μL, for ΔNp73 and TAp73, respectively). ΔNp73 and TAp73 mRNA levels were highly correlated (R^2=0.72, P<0.0001). […] However, AML with IDH1/2 mutations had 8.5-fold lower ΔNp73 expression than those with wild-type IDH1/2 (1.8±0.8 vs 15.4±7.7 copies/μL, P=0.0069), with a similar trend for TAp73 (49.0±20.3 vs 138.6±51.4 copies/μL, P=0.056). […] To further explore the regulation of TP73 isoforms, the inventors used MDM2 inhibitor Nutlin-3a to induce p53 which is a transcriptional inducer of ΔNp73. […] AML cells with IDH1/2 mutations are more dependent on Bcl-2 than those without (Chan, Nat Med 2015)."}, "[3]": {"system": "p73", "assay": "p73 protein levels after MDM2 inhibition in AML cells", "excerpt": "(§1) To further explore the regulation of TP73 isoforms, the inventors used MDM2 inhibitor Nutlin-3a to induce p53 which is a transcriptional inducer of ΔNp73."}, "[4]": {"system": "OCI-AML3 cells", "assay": "Apoptosis induction by Nutlin-3a (specific annexin V induction) in OCI-AML3 cells with vector control or p73 knockdown", "conditions": "5 μM Nutlin-3a", "excerpt": "as §1"}, "[5]": {"system": "OCI-AML3 cells", "assay": "Annexin V staining and live cell counting by flow cytometry in OCI-AML3 cells with lentiviral p73 knockdown", "experimental": "Apoptosis induction was measured by annexin V staining (Annexin V positive cells (%)), and live cell numbers were measured by counting beads by flow cytometry."}, "[6]": {"system": "MOLM-13 cells", "assay": "Sensitivity of MOLM-13 parent and ABT-199 resistant (ABTR) cells to ABT-199, annexin V and live cell numbers", "conditions": "MOLM-13 ABTR cells versus parent", "experimental": "(§2) In FIG. 2A, there are immunoblot images of two AML cell lines (MOLM-13 and MV4;11 cells) that acquired ABT-199 resistance (ABTR) through long-term exposure to continuous treatment of ABT-199. Parental control cells (Parent) are used for comparison. Histone H3 (H3) serves as a loading control, and relative protein levels were measured as ratios of target proteins and H3 through densitometry. […] In FIG. 2B, there is shown sensitivity of MOLM-13 and MV4;11 parent and ABTR cells to ABT-199. Apoptosis induction was measured by annexin V staining (Annexin V positive cells (%)), and live cell numbers were measured by counting beads by flow cytometry."}, "[7]": {"system": "MV4;11 cells", "assay": "Sensitivity of MV4;11 parent and ABT-199 resistant (ABTR) cells to ABT-199, annexin V and live cell numbers", "conditions": "MV4;11 ABTR cells versus parent", "experimental": "as §2"}, "[8]": {"system": "MOLM-13 cells", "assay": "Sensitivity to ABT-199 in MOLM-13 cells with overexpression of p73 isoforms/variants, annexin V and live cell numbers", "experimental": "In FIG. 3A, there are immunoblot images of different p73 N-terminal isoforms (TA and ΔN) and C-terminal variants (α, β and γ) protein levels. MOLM13 cells with overexpression of those p73 isoforms/variants was generated by lentiviral transfection. β-actin serves as a loading control. Successful overexpression of p73 isoforms/variants in MOLM-13 cells, which are originally sensitive to ABT-199. […] Apoptosis induction was measured by annexin V staining (Annexin V positive cells (%)), and live cell numbers were measured by counting beads by flow cytometry. […] A p73 isoform ΔNp73γ overexpression induced resistance to ABT-199, indicating a novel resistance mechanism by p73 isoforms/variants to ABT-199 in AML cells."}}, "data": [{"compound": "CCCCCCCCOC(=O)[C@H](O)CCC(=O)O", "note": "[octyl-(R)-2HG]", "values": [{"measurement": "susceptibility to the Bcl-2 inhibitor ABT-199 (VEN)", "setting": "[1]", "result": "increased susceptibility"}, {"measurement": "TAp73 and ΔNp73 levels", "setting": "[2]", "result": "reduced both TAp73 and ΔNp73"}]}, {"compound": "COc1ccc(C2=N[C@@H](c3ccc(Cl)cc3)[C@@H](c3ccc(Cl)cc3)N2C(=O)N2CCNC(=O)C2)c(OC(C)C)c1", "note": "[Nutlin-3a]", "values": [{"measurement": "p73 protein levels", "setting": "[3]", "result": "increased p73 protein levels"}, {"measurement": "specific annexin V induction", "setting": "[4]; OCI-AML3 cells with Shp73 (knockdown of TAp73 and ΔNp73)", "result": "61.3±5.2", "unit": "%"}, {"measurement": "specific annexin V induction", "setting": "[4]; OCI-AML3 cells with vector control", "result": "21.9±1.3", "unit": "%"}]}, {"compound": "Nc1ncn([C@@H]2O[C@H](CO)[C@@H](O)[C@H]2O)c(=O)n1", "note": "[5′-azacitidine]", "values": [{"measurement": "apoptosis induction (Annexin V positive cells), p73 knockdown versus control", "setting": "[5]; p73 knockdown", "result": "enhances apoptosis induction"}]}, {"compound": "CC1(C)CCC(CN2CCN(c3ccc(C(=O)NS(=O)(=O)c4ccc(NCC5CCOCC5)c([N+](=O)[O-])c4)c(Oc4cnc5[nH]ccc5c4)c3)CC2)=C(c2ccc(Cl)cc2)C1", "note": "[ABT-199]", "values": [{"measurement": "sensitivity to ABT-199 (apoptosis, live cell numbers)", "setting": "[6]", "result": "clearly show resistance"}, {"measurement": "sensitivity to ABT-199 (apoptosis, live cell numbers)", "setting": "[7]", "result": "clearly show resistance"}, {"measurement": "sensitivity to ABT-199 (apoptosis, live cell numbers)", "setting": "[8]; MOLM-13 cells with TAp73α overexpression", "result": "still sensitive"}, {"measurement": "sensitivity to ABT-199 (apoptosis, live cell numbers)", "setting": "[8]; MOLM-13 cells with TAp73α overexpression, listed as VEN", "result": "minimally increased VEN-induced apoptosis"}, {"measurement": "sensitivity to ABT-199 (apoptosis, live cell numbers)", "setting": "[8]; MOLM-13 cells with vector control", "result": "still sensitive"}, {"measurement": "sensitivity to ABT-199 (apoptosis, live cell numbers)", "setting": "[8]; MOLM-13 cells with ΔNp73β overexpression", "result": "still sensitive"}, {"measurement": "sensitivity to ABT-199 (apoptosis, live cell numbers)", "setting": "[8]; MOLM-13 cells with ΔNp73γ overexpression", "result": "resistant"}, {"measurement": "sensitivity to ABT-199 (apoptosis, live cell numbers)", "setting": "[8]; MOLM-13 cells with ΔNp73γ overexpression, listed as VEN", "result": "striking resistance"}, {"measurement": "sensitivity to VEN", "setting": "[5]; lentiviral knockdown of p73", "result": "enhanced sensitivity"}, {"measurement": "apoptosis induction (Annexin V positive cells), p73 knockdown versus control", "setting": "[5]; p73 knockdown", "result": "greater"}, {"measurement": "live cell numbers, p73 knockdown versus control", "setting": "[5]; p73 knockdown", "result": "superior reduction of live cell numbers"}]}, {"compound": "O=C(O)CC[C@@H](O)C(=O)O", "note": "[(R)-2HG]", "values": [{"measurement": "susceptibility to the Bcl-2 inhibitor ABT-199 (VEN)", "setting": "[1]", "result": "increased susceptibility"}, {"measurement": "TAp73 and ΔNp73 levels", "setting": "[2]", "result": "reduced both TAp73 and ΔNp73"}]}]}
